Laboratory results taken from ChEMBL document CHEMBL1140941 (J Med Chem, 2009).

Assays:
Bile acid receptor = target: T1, Bile acid receptor (Homo sapiens, UniProt Q96RI1); test: Agonist activity at human FXR expressed in african green monkey CV1 cells co-expressing ECRE with RXR co-factor by luciferase reporter gene assay; assay type: functional, cell-based, CV-1
T1 sequence (Q96RI1 whole entry): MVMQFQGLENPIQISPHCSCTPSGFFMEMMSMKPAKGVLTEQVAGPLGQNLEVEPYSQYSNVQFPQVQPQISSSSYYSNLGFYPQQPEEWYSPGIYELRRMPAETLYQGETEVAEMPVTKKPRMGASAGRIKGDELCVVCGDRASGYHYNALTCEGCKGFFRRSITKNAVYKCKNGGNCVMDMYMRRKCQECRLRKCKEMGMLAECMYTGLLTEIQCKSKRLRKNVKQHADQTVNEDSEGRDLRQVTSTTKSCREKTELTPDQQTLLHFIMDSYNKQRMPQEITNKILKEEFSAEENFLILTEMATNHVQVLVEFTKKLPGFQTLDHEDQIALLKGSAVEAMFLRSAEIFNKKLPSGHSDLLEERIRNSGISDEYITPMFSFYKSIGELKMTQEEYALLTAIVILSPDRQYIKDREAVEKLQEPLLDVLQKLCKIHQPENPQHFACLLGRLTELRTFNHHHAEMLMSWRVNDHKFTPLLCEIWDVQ

[1] = target: T2, Bile acid receptor (Homo sapiens) (UniProt Q96RI1); test: Agonist activity at human FXR expressed in african green monkey CV1 cells co-expressing ECRE with RXR co-factor up to 10 uM by luciferase reporter gene assay relative to CDCA; assay type: functional, cell-based; conditions: CV-1
T2 sequence (whole entry): T1 sequence (Q96RI1 whole entry)

| Structure (SMILES) | EC50 (Bile acid receptor) [nM] | Efficacy [1] [%] |
| --- | --- | --- |
| CCOC(=O)C1=CN(C(=O)c2ccc(Cl)cc2)CC(C)c2c1[nH]c1ccccc21 (stereo not given) | 73 | 155 |
| CCOC(=O)C1=CN(C(=O)c2ccc(F)c(F)c2)CC(C)c2c1[nH]c1ccccc21 (stereo not given) | 32 | 170 |
| CCOC(=O)C1=CN(C(=O)c2ccc(F)cc2)CC(C)(C)c2c1[nH]c1ccccc21 | 22 | 148 |
| CCOC(=O)C1=CN(C(=O)c2ccc(Cl)cc2)CC(C)(C)c2c1[nH]c1ccccc21 | 25 | 190 |
| CC(C)OC(=O)C1=CN(C(=O)c2ccc(F)cc2)CC(C)(C)c2c1[nH]c1ccccc21 | 8 | 146 |
| CC(C)OC(=O)C1=CN(C(=O)c2ccc(F)cc2)CCc2c1[nH]c1ccccc21 | 500 | 120 |
| CCCCOC(=O)C1=CN(C(=O)c2ccc(F)cc2)CCc2c1[nH]c1ccccc21 | 1100 | 109 |
| CCOC(=O)C1=CN(C(=O)c2ccc(F)cc2)CC(C)c2c1[nH]c1ccccc21 (stereo not given) | 57 | 160 |
| CCOC(=O)C1=CN(C(=O)c2ccc(OC)cc2)CC(C)(C)c2c1[nH]c1ccccc21 | 29 | 139 |
| CCOC(=O)C1=CN(C(=O)c2ccc(OC)cc2)CC(C)c2c1[nH]c1ccccc21 (stereo not given) | 60 | 145 |
| CCCOC(=O)C1=CN(C(=O)c2ccc(F)cc2)CCc2c1[nH]c1ccccc21 | 500 | 130 |
| CCOC(=O)C1=CN(C(=O)c2ccc(F)cc2)CCc2c1[nH]c1ccccc21 | 600 | 100 |
| CCOC(=O)C1=CN(C(=O)c2ccc(F)c(F)c2)CC(C)(C)c2c1[nH]c1ccccc21 | – | 144 |
